Consider one molecule from article PMC4520450, “Procyanidins Negatively Affect the Activity of the Phosphatases of Regenerating Liver” (PLoS ONE, 2015).

Experiment [1] concerns the target T1, PRL-3 (Homo sapiens, UniProt O75365).
T1 construct: His-TEV (cleaved yes); made in house
As to the kind of experiment: DiFMUP phosphatase activity assay for PRLs. It counts as biochemical. The note with it: 20 μM DiFMUP.

Experiment [2] addresses T2, PTP1B (Homo sapiens, UniProt P18031).
T2 construct: made in house
T2 sequence (P18031 1-435): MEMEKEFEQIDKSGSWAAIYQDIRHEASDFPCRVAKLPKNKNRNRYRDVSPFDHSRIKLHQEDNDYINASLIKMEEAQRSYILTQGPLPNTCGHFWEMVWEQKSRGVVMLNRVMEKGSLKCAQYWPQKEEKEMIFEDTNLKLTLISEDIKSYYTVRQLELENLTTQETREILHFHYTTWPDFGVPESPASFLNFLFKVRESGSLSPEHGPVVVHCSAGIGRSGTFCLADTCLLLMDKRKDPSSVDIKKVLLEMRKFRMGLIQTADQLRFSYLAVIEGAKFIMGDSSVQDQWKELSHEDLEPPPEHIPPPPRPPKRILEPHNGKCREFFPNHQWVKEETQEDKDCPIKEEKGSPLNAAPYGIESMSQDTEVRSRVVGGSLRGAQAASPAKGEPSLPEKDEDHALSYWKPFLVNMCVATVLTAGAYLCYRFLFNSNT
In words: DiFMUP assay for PTP1B, TCPTP, VHR. It counts as biochemical. The note with it: 12.5 μM, 30 min incubation, 20 μM DiFMUP, 50 nM enzyme. The procedure:
As an extension of our studies we included PTP1B, VHR and TCPTB as examples for phosphotyrosine specific phosphatases in our activity studies, because tea extracts were reported to inhibit PTP1B [43]. For comparison with PRL-3, these proteins were used in the same concentration (50 nM) as PRL-3 and DiFMUP was also used as a substrate in 20 μM concentration. The enzymes were incubated with three different concentrations of procyanidin C2 (9) for 30 min before the measurement.
Fig 3 Effect of procyanidin C2 (9) on the phosphatase activity of VHR, PTP1B and TCPTP using DiFMUP as a substrate. Proteins were incubated with compound 9 for 30 min., phosphatase activity measurements were performed using 20 μM DiFMUP. Phosphatase activity in the absence of compound 9 was set as 100%. Data represent means ± standard errors of the mean (n = 3).
DiFMUP assay for PTP1B, TCPTP, VHR: In a final reaction volume of 100 μL the PTPs (50 nM final concentration) were incubated with […] of procyanidin C2 (9) for 30 minutes at 25°C. The buffer conditions were pH 7.2, 4-/2-Hydroxyethyl)-1-piperazineethanesulfonic acid (HEPES) 25 mM, EDTA 2.5 mM, DTT 2.0 mM, NaCl 124.4 mM. After the incubation time 20 μL DiFMUP was added to reach a final concentration of 20 μM. On a Tecan safire2 (Tecan, Salzburg, Austria) plate reader dephosphorylation of the substrate to its fluorescent product was monitored by following the emission at […] for 10 minutes. All measurements were done in triplicates, and the experiments were repeated at least three times. The slopes of the initial phases were obtained by linear regression of the data points. The normalized reaction rates were plotted versus the log of the inhibitor concentrations and the IC50 values were obtained by fitting the curves using the one site competition model of GraphPad Prism (GraphPad Software, Version 5). Due to the high water solubility of 9 DMSO was not required and measurements were done in assay buffer only.

SMILES strings stand for the structures.

T1 sequence (O75365 whole entry): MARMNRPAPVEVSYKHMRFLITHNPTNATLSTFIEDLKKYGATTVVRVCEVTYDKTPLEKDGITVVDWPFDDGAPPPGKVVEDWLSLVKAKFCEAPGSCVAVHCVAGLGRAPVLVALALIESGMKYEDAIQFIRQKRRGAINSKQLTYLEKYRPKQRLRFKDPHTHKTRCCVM

Take `Oc1cc(O)c2c(c1)O[C@H](c1ccc(O)c(O)c1)[C@@H](O)[C@@H]2c1c(O)cc(O)c2c1O[C@H](c1ccc(O)c(O)c1)[C@@H](O)[C@@H]2c1c(O)cc(O)c2c1O[C@H](c1ccc(O)c(O)c1)[C@@H](O)C2` [Procyanidin C2 (9), Procyanidin C2]: the “PRL-3 phosphatase activity compared to the control” value in experiment [1] (12.5 μM, 30 min incubation, 50 nM enzyme) is on record as 75–85%. Besides, the “inhibition of PRL-3 activity” value in experiment [1] (25 μM and 50 μM) is listed as “inhibited in a concentration dependent manner”. Further, the “PTP1B phosphatase activity compared to the control” value in experiment [2] was 75–85%.
